# Activity calls are given as the source filed them. The calls are words filed in the database; no cut-off is given here. Where a SMILES comes first, the peptide text is derived from it. The star is where a group is joined. βNA = c1ccc2cc(N*)ccc2c1
# Assays:
# [1] = test system: Pseudomonas aeruginosa; test: Synergistic antibacterial activity against Pseudomonas aeruginosa 23-Y539 assessed as fractional inhibitory concentration index at 128 ug/ml incubated for 18 hrs in presence of aztreonam by checkerboard method; type: functional; conditions: dose 128 µg/ml
# [2] = test system: Pseudomonas aeruginosa; test: Antibacterial activity against Pseudomonas aeruginosa PAO1 at 128 ug/ml measured upto 24 hrs by time-kill assay; type: functional, organism-based; conditions: dose 128.0 µg/ml
# [3] = test system: Pseudomonas aeruginosa; test: Synergistic antibacterial activity against Pseudomonas aeruginosa 23-Y417 assessed as fractional inhibitory concentration index at 128 ug/ml incubated for 18 hrs in presence of aztreonam by checkerboard method; type: functional; conditions: dose 128 µg/ml
# [4] = test system: Pseudomonas aeruginosa; test: Antibacterial activity against Pseudomonas aeruginosa 23-Y372 assessed as inhibition of bacterial growth incubated for 18 hrs by agar dilution method; type: functional
# [5] = test system: Pseudomonas aeruginosa; test: Antibacterial activity against Pseudomonas aeruginosa 12-1 assessed as inhibition of bacterial growth incubated for 18 hrs by agar dilution method; type: functional
# [6] = test system: Pseudomonas aeruginosa; test: Synergistic antibacterial activity against Pseudomonas aeruginosa 21-2 assessed as aztreonam MIC at 128 ug/ml incubated for 18 hrs by checkerboard method; type: functional; conditions: dose 128 µg/ml
# [7] = test system: Pseudomonas aeruginosa; test: Antibacterial activity against Pseudomonas aeruginosa PAO1 assessed as decrease in log10 CFU at 128 ug/ml measured after 24 hrs in presence of aztreonam by time-kill assay; type: functional; conditions: dose 128 µg/ml
# [8] = test system: Pseudomonas aeruginosa; test: Synergistic antibacterial activity against Pseudomonas aeruginosa 13-35 in CAMH broth medium supplemented with 20.99 to 21.09 mM Mg2+ in presence of aztreonam by checkerboard assay; type: functional
# [9] = test system: Pseudomonas aeruginosa; test: Synergistic antibacterial activity against Pseudomonas aeruginosa 13-35 assessed as fractional inhibitory concentration index in CAMH broth medium supplemented with 0.41 to 0.51 mM Mg2+ in presence of aztreonam by checkerboard assay; type: functional
# [10] = test system: Pseudomonas aeruginosa; test: Antibacterial activity against Pseudomonas aeruginosa 23-Y511 assessed as inhibition of bacterial growth incubated for 18 hrs by agar dilution method; type: functional
# [11] = test system: Pseudomonas aeruginosa; test: Antibacterial activity against Pseudomonas aeruginosa 13-35 assessed as inhibition of bacterial growth incubated for 18 hrs by agar dilution method; type: functional
# [12] = test system: Pseudomonas aeruginosa; test: Antibacterial activity against Pseudomonas aeruginosa 19-46 assessed as inhibition of bacterial growth incubated for 18 hrs by agar dilution method; type: functional
# [13] = test system: Pseudomonas aeruginosa; test: Synergistic antibacterial activity against Pseudomonas aeruginosa 12-1 in CAMH broth medium supplemented with 0.41 to 0.51 mM Mg2+ in presence of aztreonam by checkerboard assay; type: functional
# [14] = test system: Pseudomonas aeruginosa; test: Antibacterial activity against Pseudomonas aeruginosa 16-2 at 128 ug/ml measured upto 24 hrs in presence of aztreonam by time-kill assay; type: functional, organism-based; conditions: dose 128.0 µg/ml
# [15] = test system: Pseudomonas aeruginosa; test: Antibacterial activity against Pseudomonas aeruginosa PAO1 in CAMH broth medium supplemented with 0.41 to 0.51 mM Mg2+ by checkerboard assay; type: functional
# [16] = test system: Pseudomonas aeruginosa; test: Synergistic antibacterial activity against Pseudomonas aeruginosa 13-35 assessed as aztreonam MIC at 128 ug/ml incubated for 18 hrs by checkerboard method; type: functional; conditions: dose 128 µg/ml
# [17] = test system: Pseudomonas aeruginosa; test: Antibacterial activity against Pseudomonas aeruginosa 23-Y539 assessed as inhibition of bacterial growth incubated for 18 hrs by agar dilution method; type: functional
# [18] = test system: Pseudomonas aeruginosa; test: Synergistic antibacterial activity against Pseudomonas aeruginosa 13-17 assessed as aztreonam MIC at 128 ug/ml incubated for 18 hrs by checkerboard method; type: functional; conditions: dose 128 µg/ml
# [19] = test system: Pseudomonas aeruginosa; test: Synergistic antibacterial activity against Pseudomonas aeruginosa PAO1 assessed as fractional inhibitory concentration index in CAMH broth medium supplemented with 0.41 to 0.51 mM Mg2+ in presence of aztreonam by checkerboard assay; type: functional
# [20] = test system: Pseudomonas aeruginosa; test: Synergistic antibacterial activity against Pseudomonas aeruginosa 16-11 assessed as fractional inhibitory concentration index in CAMH broth medium supplemented with 20.99 to 21.09 mM Mg2+ in presence of aztreonam by checkerboard assay; type: functional
# [21] = test system: Pseudomonas aeruginosa; test: Synergistic antibacterial activity against Pseudomonas aeruginosa PAO1 in CAMH broth medium supplemented with 20.99 to 21.09 mM Mg2+ in presence of aztreonam by checkerboard assay; type: functional
# [22] = test system: Pseudomonas aeruginosa; test: Antibacterial activity against Pseudomonas aeruginosa 16-2 infected in Galleria mellonella assessed as larvae survival rate at 100 mg/kg after 96 hrs of innoculation; type: functional
# [23] = test system: Pseudomonas aeruginosa; test: Synergistic antibacterial activity against Pseudomonas aeruginosa 13-3 assessed as fractional inhibitory concentration index at 128 ug/ml incubated for 18 hrs in presence of aztreonam by checkerboard method; type: functional; conditions: dose 128 µg/ml
# [24] = test system: Pseudomonas aeruginosa; test: Antibacterial activity against Pseudomonas aeruginosa 16-11 in CAMH broth medium supplemented with 20.99 to 21.09 mM Mg2+ by checkerboard assay; type: functional
# [25] = test system: Pseudomonas aeruginosa; test: Synergistic antibacterial activity against Pseudomonas aeruginosa 21-2 assessed as fractional inhibitory concentration index at 128 ug/ml incubated for 18 hrs in presence of aztreonam by checkerboard method; type: functional; conditions: dose 128 µg/ml
# [26] = test system: Pseudomonas aeruginosa; test: Synergistic antibacterial activity against Pseudomonas aeruginosa 16-11 assessed as aztreonam MIC in CAMH broth medium supplemented with 0.41 to 0.51 mM Mg2+ by checkerboard assay; type: functional
# [27] = test system: Pseudomonas aeruginosa; test: Synergistic antibacterial activity against Pseudomonas aeruginosa 23-Y417 assessed as aztreonam MIC at 128 ug/ml incubated for 18 hrs by checkerboard method; type: functional; conditions: dose 128 µg/ml
# [28] = test system: Pseudomonas aeruginosa; test: Synergistic antibacterial activity against Pseudomonas aeruginosa 23-Y364 assessed as aztreonam MIC at 128 ug/ml incubated for 18 hrs by checkerboard method; type: functional; conditions: dose 128 µg/ml
# [29] = test system: Pseudomonas aeruginosa; test: Antibacterial activity against Pseudomonas aeruginosa PAO1 in CAMH broth medium supplemented with 20.99 to 21.09 mM Mg2+ by checkerboard assay; type: functional
# [30] = test system: Pseudomonas aeruginosa; test: Synergistic antibacterial activity against Pseudomonas aeruginosa PAO1 assessed as aztreonam MIC in CAMH broth medium supplemented with 0.41 to 0.51 mM Mg2+ by checkerboard assay; type: functional
# [31] = test system: Pseudomonas aeruginosa; test: Synergistic antibacterial activity against Pseudomonas aeruginosa 13-35 assessed as fractional inhibitory concentration index in CAMH broth medium supplemented with 20.99 to 21.09 mM Mg2+ in presence of aztreonam by checkerboard assay; type: functional
# [32] = test system: Pseudomonas aeruginosa; test: Synergistic antibacterial activity against Pseudomonas aeruginosa PAO1 assessed as fractional inhibitory concentration index incubated for 18 hrs in presence of aztreonam by checkerboard method; type: functional
# [33] = test system: Pseudomonas aeruginosa; test: Antibacterial activity against Pseudomonas aeruginosa PAO1 infected in Galleria mellonella assessed as increase in larvae survival at 100 mg/kg measured after 96 hrs post inoculation in presence of 25 mg/kg aztreonam; type: functional
# [34] = test system: Pseudomonas aeruginosa; test: Antibacterial activity against Pseudomonas aeruginosa PAO1 infected in Galleria mellonella assessed as increase in larvae survival at 100 mg/kg after 12 hrs of innoculation; type: functional, organism-based
# [35] = test system: Pseudomonas aeruginosa; test: Antibacterial activity against Pseudomonas aeruginosa 21-7 assessed as inhibition of bacterial growth incubated for 18 hrs by agar dilution method; type: functional
# [36] = test system: Pseudomonas aeruginosa; test: Synergistic antibacterial activity against Pseudomonas aeruginosa 12-1 assessed as aztreonam MIC at 128 ug/ml incubated for 18 hrs by checkerboard method; type: functional; conditions: dose 128 µg/ml
# [37] = test system: Pseudomonas aeruginosa; test: Synergistic antibacterial activity against Pseudomonas aeruginosa 23-Y372 assessed as fractional inhibitory concentration index at 128 ug/ml incubated for 18 hrs in presence of aztreonam by checkerboard method; type: functional; conditions: dose 128 µg/ml
# [38] = test system: Pseudomonas aeruginosa; test: Antibacterial activity against Pseudomonas aeruginosa 19-55 assessed as inhibition of bacterial growth incubated for 18 hrs by agar dilution method; type: functional
# [39] = test system: Pseudomonas aeruginosa; test: Antibacterial activity against Pseudomonas aeruginosa 23-Y122 assessed as inhibition of bacterial growth incubated for 18 hrs by agar dilution method; type: functional
smiles,measurement,setting,value
NCCC[C@H](NC(=O)C[C@@H](N)Cc1ccccc1)C(=O)Nc1ccc2ccccc2c1,fractional inhibitory concentration index (FICI),[1],0.313
same,Activity,[2],inactive
same,fractional inhibitory concentration index (FICI),[3],<0.5
same,MIC,[4],512 µg/mL
same,MIC,[5],512 µg/mL
same,MIC,[6],16 µg/mL
same,Activity,[7],>2 log10CFU/ml
same,MIC,[8],128 µg/mL
same,fractional inhibitory concentration index (FICI),[9],0.5
same,MIC,[10],256 µg/mL
same,MIC,[11],512 µg/mL
same,MIC,[12],512 µg/mL
same,MIC,[13],128 µg/mL
same,Activity,[14],Active
same,MIC,[15],512 µg/mL
same,MIC,[16],4 µg/mL
same,MIC,[17],512 µg/mL
same,MIC,[18],4 µg/mL
same,fractional inhibitory concentration index (FICI),[19],0.5
same,fractional inhibitory concentration index (FICI),[20],1.25
same,MIC,[21],128 µg/mL
same,Activity,[22],20%
same,fractional inhibitory concentration index (FICI),[23],0.375
same,MIC,[24],512 µg/mL
same,fractional inhibitory concentration index (FICI),[25],<0.5
same,MIC,[26],2 µg/mL
same,MIC,[27],8 µg/mL
same,MIC,[28],8 µg/mL
same,MIC,[29],512 µg/mL
same,MIC,[30],2 µg/mL
same,fractional inhibitory concentration index (FICI),[31],0.5
same,fractional inhibitory concentration index (FICI),[32],0.375
same,Activity,[33],40%
same,Activity,[34],inactive
same,MIC,[35],512 µg/mL
same,MIC,[36],16 µg/mL
same,fractional inhibitory concentration index (FICI),[37],0.375
same,MIC,[38],512 µg/mL
same,MIC,[39],512 µg/mL
N=C(N)NCCC[C@H](NC(=O)[C@@H](N)Cc1ccccc1)C(=O)Nc1ccc2ccccc2c1 [PABETAN] (H-Phe-Arg-βNA),fractional inhibitory concentration index (FICI),[1],0.313
same,fractional inhibitory concentration index (FICI),[3],0.5
same,MIC,[8],128 µg/mL
same,fractional inhibitory concentration index (FICI),[9],0.5
same,MIC,[13],128 µg/mL
same,MIC,[15],512 µg/mL
same,fractional inhibitory concentration index (FICI),[19],0.5
same,fractional inhibitory concentration index (FICI),[20],1.25
same,MIC,[21],128 µg/mL
same,fractional inhibitory concentration index (FICI),[23],0.375
same,MIC,[24],512 µg/mL
same,fractional inhibitory concentration index (FICI),[25],0.5
same,MIC,[29],512 µg/mL
same,fractional inhibitory concentration index (FICI),[31],0.375
same,fractional inhibitory concentration index (FICI),[32],0.375
same,MIC,[36],8 µg/mL
same,fractional inhibitory concentration index (FICI),[37],0.375

# From ChEMBL document CHEMBL5625252, “Synthesis of peptidomimetics as antibiotic adjuvants for combination with aztreonam to combat MDR Pseudomonas aeruginosa” (Eur J Med Chem, 2023)
